In US10723741B1, “DNA polymerase IIIC inhibitors and use thereof” (Acurx Pharmaceuticals, LLC, priority 2018, dated 2020):
In brackets after ≈: the same amount, converted by molar mass. Counter-ions that a name gives are not always drawn. Like-named read-outs stand apart in the source and are kept apart here.

What was measured:
Type in all cases: cell-based
[1] = test system: Enterococcus faecalis ATCC 29212; test: Broth microdilution MIC, E. faecalis ATCC 29212; conditions: read-out: MIC E. faecalis ATCC 29212
How it was run: (§1)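 Two-fold dilutions from 64 to 0.0625 μg/ml final, 1% DMSO, were inoculated at ~5.0×10^5 cfu/ml in the strain's test medium and kept 20 h at 37 °C in ambient atmosphere. Colonies were grown on MHA, with S. pneumoniae on blood agar under 5% CO2.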

[2] = test system: Escherichia coli ATCC 25922; test: Broth microdilution MIC, E. coli ATCC 25922 (MHIIB w & w/o 4 mM EDTA); conditions: for MIC: Escherichia coli, read-out: MIC E. coli ATCC 25922; for MIC E. coli ATCC 25922 + 4 mM EDTA: with 4 mM EDTA
How it was run: as §1

[3] = test system: Staphylococcus aureus ATCC 29213 (MSSA); test: Broth microdilution MIC, S. aureus ATCC 29213 (MSSA); conditions: read-out: MIC S. aureus ATCC 29213 (MSSA)
How it was run: as §1

[4] = test system: Streptococcus pneumoniae ATCC 49619; test: Broth microdilution MIC, S. pneumoniae ATCC 49619; conditions: read-out: MIC S. pneumoniae ATCC 49619
How it was run: as §1

[5] = test system: Enterococcus faecium ATCC 700221 (VRE); test: Broth microdilution MIC, E. faecium ATCC 700221 (VRE); parameters: MIC E. faecium ATCC 700221 (VRE): unit: ug/mL; conditions: for MIC: Enterococcus faecium, read-out: MIC E. faecium ATCC 700221 (VRE)
How it was run: as §1

[6] = test system: Bacillus subtilis ATCC 6633; test: Broth microdilution MIC, B. subtilis ATCC 6633; conditions: read-out: MIC B. subtilis ATCC 6633
How it was run: as §1

[7] = test system: Staphylococcus aureus NRS384 (MRSA); test: Broth microdilution MIC, S. aureus NRS384 (MRSA); parameters: MIC NRS 384 (MRSA): unit not given here; conditions: for MIC: Staphylococcus aureus, read-out: MIC NRS 384 (MRSA)
How it was run: as §1

[8] = ATCC29212, broth microdilution, 37° C., 20 hours
[9] = ATCC25922, without EDTA, broth microdilution, 37° C., 20 hours
[10] = broth microdilution, 37° C., 20 hours
[11] = ATCC49619, broth microdilution, 37° C., 20 hours
[12] = ATCC6633, broth microdilution, 37° C., 20 hours

Row | MIC [1, 8] [µg/mL] | MIC [2, 9] [µg/mL] | MIC E. coli ATCC 25922 + 4 mM EDTA [2, 10] [µg/mL] | MIC [3, 10] [µg/mL] | MIC [4, 11] [µg/mL] | MIC [5, 10] [µg/mL] | MIC [6, 12] [µg/mL] | MIC ([7]; S. aureus NRS 384, broth microdilution, 37° C., 20 hours) [µg/mL] | MIC [7, 10] [µg/mL] | Structure (SMILES) | MIC ([1]; ATCC29212, 20 h) [µg/mL] | MIC ([2]; ATCC25922, 20 h) [µg/mL] | MIC ([3]; 20 h) [µg/mL] | MIC ([4]; ATCC49619, 20 h) [µg/mL] | MIC E. faecium ATCC 700221 (VRE) [5, 10] | MIC ([6]; ATCC6633, 20 h) [µg/mL] | MIC NRS 384 (MRSA) [7, 10] | MIC ([5]; 20 h) [µg/mL] | MIC ([7]; 20 h) [µg/mL]
1 | 16 (≈ 42.2 µM) | > 64 | >64 | 8 (≈ 21.1 µM) | 8 (≈ 21.1 µM) | 8 (≈ 21.1 µM) | 2 (≈ 5.27 µM) | 16 (≈ 42.2 µM) |  | Cc1ccc(CNc2nc3c(F)nn(CCOCCO)c3c(=O)[nH]2)cc1F [Compound 313, 3-Fluoro-5-((3-fluoro-4-methylbenzyl)amino)-1-(2-(2-hydroxyethoxy)ethyl)-1H-pyrazolo[4,3-d]pyrimidin-7(6H)-one] |  |  |  |  |  |  |  |  | 
2 | 16 (≈ 38.9 µM) | > 64 | >64 | 16 (≈ 38.9 µM) | 8 (≈ 19.5 µM) | 8 (≈ 19.5 µM) | 8 (≈ 19.5 µM) |  | 64 (≈ 156 µM) | NC(=O)COCCn1ncc2nc(NCc3ccc(Cl)c(Cl)c3)[nH]c(=O)c21 [Compound 284, 2-[2-[5-[(3,4-dichlorophenyl)methylamino]-7-oxo-6H-pyrazolo[4,3-d]pyrimidin-1-yl]ethoxy]acetamide] |  |  |  |  |  |  |  |  | 
3 | > 64 | > 64 | >64 | > 64 | 64 (≈ 152 µM) | 32 (≈ 76.1 µM) | > 64 |  | > 64 | O=c1[nH]c(NCc2ccc(Cl)c(Cl)c2)nc2cnn(CCCc3nnn[nH]3)c12 [Compound 221, 1-(3-(1H-tetrazol-5-yl)propyl)-5-((3,4-dichlorobenzyl)amino)-1H-pyrazolo[4,3-d]pyrimidin-7(6H)-one] |  |  |  |  |  |  |  |  | 
4 | > 64 | > 64 | >64 | > 64 | > 64 | > 64 | > 64 |  | > 64 | O=C(O)COCCn1ncc2nc(NCc3ccc(Cl)c(Cl)c3)[nH]c(=O)c21 [Compound 283, 2-[2-[5-[(3,4-dichlorophenyl)methylamino]-7-oxo-6H-pyrazolo[4,3-d]pyrimidin-1-yl]ethoxy]acetic acid] |  |  |  |  |  |  |  |  | 
5 | 8 (≈ 17.4 µM) | > 64 | >64 | 8 (≈ 17.4 µM) | 2 (≈ 4.34 µM) | 2 (≈ 4.34 µM) | 4 (≈ 8.69 µM) |  | 16 (≈ 34.8 µM) | CS(=O)(=O)CCOCCn1ncc2nc(NCc3ccc(Cl)c(Cl)c3)[nH]c(=O)c21 [Compound 220, 5-((3,4-dichlorobenzyl)amino)-1-(2-(2-(methylsulfonyl)ethoxy)ethyl)-1H-pyrazolo[4,3-d]pyrimidin-7(6H)-one] |  |  |  |  |  |  |  |  | 

Second part, the compound before the results:

Row | Structure (SMILES) | MIC [1, 8] [µg/mL] | MIC [2, 9] [µg/mL] | MIC E. coli ATCC 25922 + 4 mM EDTA [2, 10] [µg/mL] | MIC [3, 10] [µg/mL] | MIC [4, 11] [µg/mL] | MIC [5, 10] [µg/mL] | MIC [6, 12] [µg/mL] | MIC ([7]; S. aureus NRS 384, broth microdilution, 37° C., 20 hours) [µg/mL] | MIC [7, 10] [µg/mL] | MIC ([1]; ATCC29212, 20 h) [µg/mL] | MIC ([2]; ATCC25922, 20 h) [µg/mL] | MIC ([3]; 20 h) [µg/mL] | MIC ([4]; ATCC49619, 20 h) [µg/mL] | MIC E. faecium ATCC 700221 (VRE) [5, 10] | MIC ([6]; ATCC6633, 20 h) [µg/mL] | MIC NRS 384 (MRSA) [7, 10] | MIC ([5]; 20 h) [µg/mL] | MIC ([7]; 20 h) [µg/mL]
6 | COc1cc(CNc2nc3cnn(C)c3c(=O)[nH]2)ccc1Cl [Compound 34, 5-((4-Chloro-3-methoxybenzyl)amino)-1-methyl-1H-pyrazolo[4,3-d]pyrimidin-7(6H)-one] | > 64 | > 64 | >64 | > 64 | 64 (≈ 200 µM) | > 64 | > 64 |  | > 64 |  |  |  |  |  |  |  |  | 
7 | CN(CCn1ncc2nc(NCc3ccc(Cl)c(Cl)c3)[nH]c(=O)c21)C(=O)c1cc(O)nnc1Cl [Compound 87, 3-chloro-N-(2-(5-((3,4-dichlorobenzyl)amino)-7-oxo-6,7-dihydro-1H-pyrazolo[4,3-d]pyrimidin-1-yl)ethyl)-6-hydroxy-N-methylpyridazine-4-carboxamide] | 32 (≈ 61.1 µM) | > 64 | >64 | 64 (≈ 122 µM) | 8 (≈ 15.3 µM) | 32 (≈ 61.1 µM) | 64 (≈ 122 µM) |  | > 64 |  |  |  |  |  |  |  |  | 
8 | O=c1[nH]c(NCc2ccc(Cl)c(Cl)c2)nc2cnn(CCNCCn3ncc4nc(NCc5ccc(Cl)c(Cl)c5)[nH]c(=O)c43)c12 [Compound 78] | 8 (≈ 11.6 µM) | > 64 | >64 | 64 (≈ 92.8 µM) | 32 (≈ 46.4 µM) | 2 (≈ 2.9 µM) | 4 (≈ 5.8 µM) |  | 32 (≈ 46.4 µM) |  |  |  |  |  |  |  |  | 
9 | CC(C)(C)OC(=O)N1CCC(n2ncc3nc(NCc4ccc(Cl)c(Cl)c4)[nH]c(=O)c32)C1 (stereo not shown) [Compound 98, tert-Butyl 3-(5-((3,4-dichlorobenzyl)amino)-7-oxo-6,7-dihydro-1H-pyrazolo[4,3-d]pyrimidin-1-yl)pyrrolidine-1-carboxylate] | > 64 | > 64 | >64 | 8 (≈ 16.7 µM) | 16 (≈ 33.4 µM) | 4 (≈ 8.34 µM) | 2 (≈ 4.17 µM) |  | 8 (≈ 16.7 µM) |  |  |  |  |  |  |  |  | 
10 | CCOCCc1nn(C)c2c(=O)[nH]c(NCc3ccc(Cl)c(Cl)c3)nc12 [Compound 49, 5-((3,4-dichlorobenzyl)amino)-3-(2-ethoxyethyl)-1-methyl-1H-pyrazolo[4,3-d]pyrimidin-7(6H)-one] | > 64 | > 64 | >64 | 16 (≈ 40.4 µM) | 16 (≈ 40.4 µM) | 16 (≈ 40.4 µM) | 8 (≈ 20.2 µM) |  | 8 (≈ 20.2 µM) |  |  |  |  |  |  |  |  | 
11 | COCCOCCn1ncc2nc(NCc3ccc(Cl)c(Cl)c3)[nH]c(=O)c21 [Compound 136, 5-((3,4-Dichlorobenzyl)amino)-1-(2-(2-methoxyethoxy)ethyl)-1H-pyrazolo[4,3-d]pyrimidin-7(6H)-one] | 4 (≈ 9.7 µM) | > 64 | >64 | 4 (≈ 9.7 µM) | 2 (≈ 4.85 µM) | 2 (≈ 4.85 µM) | 1 (≈ 2.43 µM) |  | 4 (≈ 9.7 µM) |  |  |  |  |  |  |  |  | 
12 | Cl.O=C(O)c1ccc(OCCn2ncc3nc(NCc4ccc(Cl)c(Cl)c4)[nH]c(=O)c32)cn1 [Compound 175, 5-(2-(5-((3,4-dichlorobenzyl)amino)-7-oxo-6,7-dihydro-1H-pyrazolo[4,3-d]pyrimidin-1-yl)ethoxy)picolinic acid hydrochloride] | > 64 | > 64 | >64 | > 64 | > 64 | > 64 | > 64 |  | > 64 |  |  |  |  |  |  |  |  | 
13 | O=c1[nH]c(NCc2ccc(Cl)c(Cl)c2)nc2cnn(C3CCN(c4cccnc4)CC3)c12 [Compound 163, 5-((3,4-dichlorobenzyl)amino)-1-(1-(pyridin-3-yl)piperidin-4-yl)-1H-pyrazolo[4,3-d]pyrimidin-7(6H)-one dihydrochloride] |  |  | >64 |  |  |  |  |  |  | > 64 | > 64 | 2 | 8 | 2/2 | 0.5 | 2/2 |  | 
14 | CC(C)(C)OC(=O)NCCOCCn1ncc2nc(NCc3ccc(Cl)c(Cl)c3)[nH]c(=O)c21 [Compound 100, tert-Butyl (2-(2-(5-((3,4-dichlorobenzyl)amino)-7-oxo-6,7-dihydro-1H-pyrazolo[4,3-d]pyrimidin-1-yl)ethoxy)ethyl)carbamate] |  |  | >64 |  |  |  |  |  |  | > 64 | > 64 | > 64 | 8 (≈ 16.1 µM) |  | 2 (≈ 4.02 µM) |  | 4 (≈ 8.04 µM) | > 64
